In one assay the target is EGFR (Homo sapiens (Human), UniProt P00533). Nature of the assay: Kinase inhibition, Mobility-Shift Assay. The assay is classed as biochemical. Conditions: class; read-out: EGFR range of activity (IC50).
Assay [1] concerns bladder cancer cell line (RT112/84). Description: Tumor cell proliferation inhibition (CTG, 72 h). In kind it is cell-based. Conditions: RT112/84 cells, class, read-out: RT112/84 range of activity (IC50).
Another assay has as its target FGFR2 (Homo sapiens (Human), UniProt P21802). Description: Kinase inhibition, Mobility-Shift Assay. In kind it is biochemical. Conditions: class; read-out: FGFR2 range of activity effects (IC50).
The next assay deals with FGFR4 (Homo sapiens (Human), UniProt P22455). Description: Kinase inhibition, Mobility-Shift Assay. In kind it is biochemical. Particulars: class; read-out: FGFR4 range of activity effects (IC50).
Chain of FGFR4 (P22455 22-802): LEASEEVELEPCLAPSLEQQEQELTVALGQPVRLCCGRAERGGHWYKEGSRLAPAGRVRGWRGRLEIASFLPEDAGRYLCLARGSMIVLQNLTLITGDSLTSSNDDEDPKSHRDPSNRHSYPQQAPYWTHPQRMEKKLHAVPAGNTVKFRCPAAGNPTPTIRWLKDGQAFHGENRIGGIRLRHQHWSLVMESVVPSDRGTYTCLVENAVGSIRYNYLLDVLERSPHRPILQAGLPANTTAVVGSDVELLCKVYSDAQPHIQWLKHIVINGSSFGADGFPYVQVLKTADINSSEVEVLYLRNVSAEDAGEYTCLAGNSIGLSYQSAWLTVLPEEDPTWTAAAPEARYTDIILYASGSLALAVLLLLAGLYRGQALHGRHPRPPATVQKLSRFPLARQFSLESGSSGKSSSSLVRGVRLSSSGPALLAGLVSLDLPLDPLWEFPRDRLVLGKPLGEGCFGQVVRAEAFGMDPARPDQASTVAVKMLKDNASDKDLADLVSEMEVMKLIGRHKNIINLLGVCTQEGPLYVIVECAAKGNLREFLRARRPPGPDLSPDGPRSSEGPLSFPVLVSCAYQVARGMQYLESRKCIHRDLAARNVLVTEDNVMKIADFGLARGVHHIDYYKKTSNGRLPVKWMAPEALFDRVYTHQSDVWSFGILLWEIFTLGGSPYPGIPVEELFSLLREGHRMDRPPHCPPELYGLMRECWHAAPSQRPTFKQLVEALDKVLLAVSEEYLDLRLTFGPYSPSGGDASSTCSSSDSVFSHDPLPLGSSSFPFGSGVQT
The subject of assay [2] is leukemia cell line (K562). Nature of the assay: Tumor cell proliferation inhibition (CTG, 72 h). The assay is classed as cell-based. Particulars: K562 cells, class, read-out: K562 activity effect range (IC50).
Assay [3] has as its system cervical cancer cell line (Hela). Description: Tumor cell proliferation inhibition (CTG, 72 h). Conditions: Hela cells, class, read-out: Hela activity effect range (IC50). In kind it is cell-based.
In assay [4] the test system is thyroid cancer cell line (TT). Description: Tumor cell proliferation inhibition (CTG, 72 h). In kind it is cell-based. Conditions: TT cells, class, read-out: TT range of activity (IC50).
Another assay addresses VEGFR-2 (KDR) (Homo sapiens (Human), UniProt P35968). Nature of the assay: Kinase inhibition, Mobility-Shift Assay. In kind it is biochemical. Particulars: class; read-out: KDR activity effect range (IC50).
Another assay deals with C-MET (Homo sapiens (Human), UniProt P08581). Nature of the assay: Kinase inhibition, Mobility-Shift Assay. The assay is classed as biochemical. Conditions: class; read-out: C-MET range of activity (IC50).
Chain of C-MET (P08581 25-1390): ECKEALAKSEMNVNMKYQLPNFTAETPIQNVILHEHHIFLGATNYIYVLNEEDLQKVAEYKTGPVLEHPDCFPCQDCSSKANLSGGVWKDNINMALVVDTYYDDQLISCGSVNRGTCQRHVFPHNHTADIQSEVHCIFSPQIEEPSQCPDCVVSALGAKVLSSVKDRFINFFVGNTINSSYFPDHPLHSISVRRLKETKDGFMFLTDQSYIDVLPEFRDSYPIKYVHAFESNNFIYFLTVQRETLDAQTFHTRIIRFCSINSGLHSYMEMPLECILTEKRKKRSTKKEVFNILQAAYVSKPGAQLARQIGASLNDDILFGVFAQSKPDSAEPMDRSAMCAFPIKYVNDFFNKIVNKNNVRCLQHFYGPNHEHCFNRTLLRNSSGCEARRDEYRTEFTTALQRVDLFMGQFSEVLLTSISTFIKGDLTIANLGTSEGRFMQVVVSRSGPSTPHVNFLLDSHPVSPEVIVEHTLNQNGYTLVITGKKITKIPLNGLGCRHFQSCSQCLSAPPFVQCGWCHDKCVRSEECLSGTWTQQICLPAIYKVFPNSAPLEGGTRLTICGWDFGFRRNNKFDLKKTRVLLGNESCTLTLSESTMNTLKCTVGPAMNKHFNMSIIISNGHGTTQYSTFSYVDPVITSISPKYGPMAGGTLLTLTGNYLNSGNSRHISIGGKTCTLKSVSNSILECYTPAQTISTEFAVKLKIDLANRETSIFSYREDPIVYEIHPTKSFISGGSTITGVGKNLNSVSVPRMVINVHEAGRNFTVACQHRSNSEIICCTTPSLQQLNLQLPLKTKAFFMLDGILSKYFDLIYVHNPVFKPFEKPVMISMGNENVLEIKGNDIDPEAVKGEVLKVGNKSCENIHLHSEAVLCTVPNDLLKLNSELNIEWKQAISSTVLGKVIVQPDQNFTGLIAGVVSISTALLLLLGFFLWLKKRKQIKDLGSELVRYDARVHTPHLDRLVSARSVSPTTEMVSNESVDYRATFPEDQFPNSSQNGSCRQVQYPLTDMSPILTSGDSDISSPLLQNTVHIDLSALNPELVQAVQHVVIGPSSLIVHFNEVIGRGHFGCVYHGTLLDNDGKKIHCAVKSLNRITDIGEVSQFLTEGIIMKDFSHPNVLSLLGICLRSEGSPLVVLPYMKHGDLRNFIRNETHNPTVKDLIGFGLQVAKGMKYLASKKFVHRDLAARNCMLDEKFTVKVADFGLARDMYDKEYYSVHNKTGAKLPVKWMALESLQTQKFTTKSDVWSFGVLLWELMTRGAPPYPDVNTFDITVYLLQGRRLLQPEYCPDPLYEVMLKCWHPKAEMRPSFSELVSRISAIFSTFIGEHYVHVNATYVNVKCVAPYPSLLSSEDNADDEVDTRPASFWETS
The subject of assay [5] is hepatocellular carcinoma cell line (Hep3B 2.1-7). Description: Tumor cell proliferation inhibition (CTG, 72 h). The assay is classed as cell-based. Particulars: Hep3B 2.1-7 cells, class, read-out: Hep3B 2.1-7 range of activity (IC50).

SMILES strings stand for the structures. Like-named read-outs stand apart in the source and are kept apart here. Where only a bound is given, the exact number is not on record here.

Chain of FGFR2 (P21802 22-821): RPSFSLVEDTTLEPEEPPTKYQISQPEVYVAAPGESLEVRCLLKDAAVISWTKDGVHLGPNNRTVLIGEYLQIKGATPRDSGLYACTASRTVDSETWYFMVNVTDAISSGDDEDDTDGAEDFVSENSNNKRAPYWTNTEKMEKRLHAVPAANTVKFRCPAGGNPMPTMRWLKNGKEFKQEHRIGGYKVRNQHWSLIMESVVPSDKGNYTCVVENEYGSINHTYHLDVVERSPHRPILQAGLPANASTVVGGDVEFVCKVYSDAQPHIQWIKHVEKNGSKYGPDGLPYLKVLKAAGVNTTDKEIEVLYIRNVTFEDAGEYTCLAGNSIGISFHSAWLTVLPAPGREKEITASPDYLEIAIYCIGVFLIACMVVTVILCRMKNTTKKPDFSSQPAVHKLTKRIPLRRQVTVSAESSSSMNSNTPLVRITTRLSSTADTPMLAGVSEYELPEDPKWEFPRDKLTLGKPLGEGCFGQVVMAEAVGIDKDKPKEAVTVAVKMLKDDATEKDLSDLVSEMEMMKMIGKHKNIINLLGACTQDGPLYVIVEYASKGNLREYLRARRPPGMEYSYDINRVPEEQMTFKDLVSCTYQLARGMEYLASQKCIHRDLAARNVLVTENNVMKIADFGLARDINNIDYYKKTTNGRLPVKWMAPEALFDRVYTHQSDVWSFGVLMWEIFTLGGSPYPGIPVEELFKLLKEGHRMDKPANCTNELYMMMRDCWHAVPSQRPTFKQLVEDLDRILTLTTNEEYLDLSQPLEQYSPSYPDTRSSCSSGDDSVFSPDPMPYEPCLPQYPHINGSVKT
Chain of VEGFR-2 (KDR) (P35968 20-1356): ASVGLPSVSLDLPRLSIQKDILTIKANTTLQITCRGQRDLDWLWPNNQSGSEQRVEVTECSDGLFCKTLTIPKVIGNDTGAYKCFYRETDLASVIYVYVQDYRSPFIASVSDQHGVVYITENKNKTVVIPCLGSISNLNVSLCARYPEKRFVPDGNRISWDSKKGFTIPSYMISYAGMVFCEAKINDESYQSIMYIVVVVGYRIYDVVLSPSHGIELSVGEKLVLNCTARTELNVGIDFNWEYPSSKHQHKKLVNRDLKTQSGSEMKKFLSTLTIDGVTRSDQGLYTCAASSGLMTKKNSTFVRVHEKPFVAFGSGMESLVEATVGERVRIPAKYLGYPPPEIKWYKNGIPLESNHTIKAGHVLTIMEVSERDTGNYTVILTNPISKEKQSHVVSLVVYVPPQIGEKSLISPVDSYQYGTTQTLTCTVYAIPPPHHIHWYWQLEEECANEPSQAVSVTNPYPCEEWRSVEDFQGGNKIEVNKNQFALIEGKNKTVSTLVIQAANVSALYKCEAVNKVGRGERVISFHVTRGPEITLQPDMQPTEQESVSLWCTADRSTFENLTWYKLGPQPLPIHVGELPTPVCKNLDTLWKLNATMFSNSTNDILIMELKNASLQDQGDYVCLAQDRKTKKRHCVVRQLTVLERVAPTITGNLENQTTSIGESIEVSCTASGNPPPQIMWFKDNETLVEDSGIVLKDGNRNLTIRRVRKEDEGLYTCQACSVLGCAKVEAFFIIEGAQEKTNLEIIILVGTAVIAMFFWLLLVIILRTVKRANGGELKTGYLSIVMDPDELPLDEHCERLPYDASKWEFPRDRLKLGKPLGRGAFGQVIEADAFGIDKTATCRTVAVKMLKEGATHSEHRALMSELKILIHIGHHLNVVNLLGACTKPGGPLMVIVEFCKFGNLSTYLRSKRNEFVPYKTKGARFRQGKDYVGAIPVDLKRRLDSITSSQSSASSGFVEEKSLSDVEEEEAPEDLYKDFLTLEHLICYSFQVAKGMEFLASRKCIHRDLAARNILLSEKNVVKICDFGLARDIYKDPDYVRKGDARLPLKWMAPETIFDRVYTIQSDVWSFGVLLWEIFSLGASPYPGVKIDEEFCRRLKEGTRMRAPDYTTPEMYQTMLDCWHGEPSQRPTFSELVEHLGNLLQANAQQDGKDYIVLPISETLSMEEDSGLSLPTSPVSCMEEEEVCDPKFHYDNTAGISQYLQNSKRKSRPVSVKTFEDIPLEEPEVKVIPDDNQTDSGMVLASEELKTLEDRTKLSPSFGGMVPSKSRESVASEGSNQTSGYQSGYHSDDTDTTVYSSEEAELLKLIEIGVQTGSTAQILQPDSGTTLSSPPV

As to `COc1cc2nccc(Oc3c(F)cc(NC(=O)NC4CCOCC4)c(Cl)c3F)c2cc1C(N)=O` [III-28], the IC50 at EGFR was over 100 nM; in assay [1] (Homo sapiens), over 1000 nM; on FGFR2, over 100 nM; at FGFR4, over 100 nM; in assay [2] (Homo sapiens), over 10000 nM; in assay [3] (Homo sapiens), over 10000 nM. Moreover, the IC50 is over 10000 nM in assay [4] (Homo sapiens), over 10 nM at VEGFR-2 (KDR), over 100 nM at C-MET and over 5000 nM in assay [5] (Homo sapiens).
Consider `COc1cc2nccc(Oc3c(F)cc(NC(=O)NC4CC(O)C4)c(Cl)c3F)c2cc1C(N)=O` (stereo not drawn) [III-29], for which the IC50 is over 100 nM on EGFR; over 1000 nM in assay [1] (Homo sapiens); over 100 nM at FGFR2; over 100 nM on FGFR4; over 10000 nM in assay [2] (Homo sapiens); over 10000 nM in [3] (Homo sapiens). For the same compound, the IC50 in [4] (Homo sapiens) was over 10000 nM; at VEGFR-2 (KDR), over 10 nM; on C-MET, over 100 nM; in [5] (Homo sapiens), over 5000 nM.
Consider `COc1cc2nccc(Oc3c(F)cc(NC(=O)NC4CC(O)C4)c(Cl)c3F)c2cc1C(N)=O` (stereo not drawn) [III-30], for which the IC50 at EGFR was over 100 nM; in assay [1] it was over 1000 nM; at FGFR2, over 100 nM; at FGFR4 it was over 100 nM; in [2] it was over 10000 nM; in [3], over 10000 nM. Also, the IC50 in assay [4] was over 10000 nM; at VEGFR-2 (KDR), over 10 nM; at C-MET, over 100 nM; in assay [5] it was over 5000 nM.
For the compound `COc1cc2nccc(Oc3c(F)cc(NC(=O)N4CC[C@H](O)C4)c(Cl)c3F)c2cc1C(N)=O` [III-31], the IC50 on EGFR is over 100 nM; in assay [1] (Homo sapiens) it was over 1000 nM; on FGFR2 it was over 100 nM; on FGFR4 it was over 100 nM; in assay [2] (Homo sapiens) it was over 10000 nM; in [3] (Homo sapiens) it was over 10000 nM. Besides, the IC50 in [4] (Homo sapiens) is over 10000 nM; at VEGFR-2 (KDR), over 10 nM; at C-MET, over 100 nM; in [5] (Homo sapiens), over 5000 nM.
For the compound `COc1cc2nccc(Oc3c(F)cc(NC(=O)N4CC[C@@H](O)C4)c(Cl)c3F)c2cc1C(N)=O` [III-32], the IC50 was over 100 nM at EGFR; over 1000 nM in [1] (Homo sapiens); over 100 nM at FGFR2; over 100 nM on FGFR4; over 10000 nM in assay [2] (Homo sapiens); over 10000 nM in [3] (Homo sapiens). The IC50 in assay [4] (Homo sapiens) was over 10000 nM; at VEGFR-2 (KDR), over 10 nM; on C-MET, over 100 nM; in [5] (Homo sapiens), over 5000 nM.
`COc1cc2nccc(Oc3c(F)cc(NC(=O)N4CCN(C)CC4)c(Cl)c3F)c2cc1C(N)=O` [III-33]: the IC50 was over 100 nM on EGFR; over 1000 nM in [1] (Homo sapiens); over 100 nM on FGFR2; over 100 nM on FGFR4; over 10000 nM in [2] (Homo sapiens); over 10000 nM in [3] (Homo sapiens). In addition, the IC50 in assay [4] (Homo sapiens) was over 10000 nM; on VEGFR-2 (KDR) it was over 10 nM; on C-MET, over 100 nM; in assay [5] (Homo sapiens), over 5000 nM.
Consider `COc1cc2nccc(Oc3c(F)cc(NC(=O)NC(C)C)c(Cl)c3F)c2cc1C(N)=O` [III-34], for which the IC50 on EGFR is over 100 nM; in assay [1] (Homo sapiens), over 1000 nM; at FGFR2, over 100 nM; on FGFR4, over 100 nM; in [2] (Homo sapiens), over 10000 nM; in [3] (Homo sapiens) it was over 10000 nM. The IC50 is over 10000 nM in assay [4] (Homo sapiens), over 10 nM on VEGFR-2 (KDR), over 100 nM on C-MET and over 5000 nM in assay [5] (Homo sapiens).
Consider `COc1cc2nccc(Oc3c(Cl)cc(NC(=O)NC4CC4)c(F)c3F)c2cc1C(N)=O` [III-35], for which the IC50 was over 100 nM at EGFR; over 1000 nM in [1] (Homo sapiens); over 100 nM on FGFR2; over 100 nM at FGFR4; over 10000 nM in assay [2] (Homo sapiens); over 10000 nM in assay [3] (Homo sapiens). Also, the IC50 is over 10000 nM in assay [4] (Homo sapiens), over 10 nM at VEGFR-2 (KDR), over 100 nM on C-MET and over 5000 nM in assay [5] (Homo sapiens).
For the compound `COc1cc2nccc(Oc3c(F)c(F)c(NC(=O)NC4CC4)c(F)c3F)c2cc1C(N)=O` [III-36], the IC50 on EGFR is over 100 nM; in [1] (Homo sapiens) it was over 1000 nM; on FGFR2 it was over 100 nM; at FGFR4, over 100 nM; in assay [2] (Homo sapiens), over 10000 nM; in [3] (Homo sapiens), over 10000 nM. For the same compound, the IC50 is over 10000 nM in assay [4] (Homo sapiens), over 10 nM on VEGFR-2 (KDR), over 100 nM on C-MET and over 5000 nM in [5] (Homo sapiens).
On to `C=CC1CC1(NC(=O)Nc1cc(F)c(Oc2ccnc3cc(OC)c(C(N)=O)cc23)c(F)c1Cl)C(=O)NC1CC1` (stereo not drawn) [III-37], for which the IC50 on EGFR is over 100 nM; in [1] (Homo sapiens) it was over 1000 nM; at FGFR2, over 100 nM; on FGFR4, over 100 nM; in assay [2] (Homo sapiens) it was over 10000 nM; in [3] (Homo sapiens), over 10000 nM. Further, the IC50 is over 10000 nM in assay [4] (Homo sapiens), over 10 nM on VEGFR-2 (KDR), over 100 nM at C-MET and over 5000 nM in assay [5] (Homo sapiens).
Take `COc1cc2nccc(Oc3c(F)cc(NC(=O)NC(C)C(F)(F)F)c(Cl)c3F)c2cc1C(N)=O` (stereo not drawn) [III-38]: the IC50 on EGFR is over 100 nM; in assay [1] (Homo sapiens) it was over 1000 nM; at FGFR2 it was over 100 nM; at FGFR4, over 100 nM; in assay [2] (Homo sapiens), over 10000 nM; in assay [3] (Homo sapiens), over 10000 nM. Further, the IC50 is over 10000 nM in assay [4] (Homo sapiens), over 10 nM at VEGFR-2 (KDR), over 100 nM on C-MET and over 5000 nM in assay [5] (Homo sapiens).
Turning to `COc1cc2nccc(Oc3c(F)cc(NC(=O)NC4(C(F)(F)F)CC4)c(Cl)c3F)c2cc1C(N)=O` [III-39], the IC50 on EGFR was over 100 nM; in [1] (Homo sapiens), over 1000 nM; at FGFR2, over 100 nM; on FGFR4 it was over 100 nM; in [2] (Homo sapiens), over 10000 nM; in assay [3] (Homo sapiens) it was over 10000 nM. For the same compound, the IC50 in [4] (Homo sapiens) was over 10000 nM; at VEGFR-2 (KDR), over 10 nM; at C-MET, over 100 nM; in assay [5] (Homo sapiens) it was over 5000 nM.
On to `COc1cc2nccc(Oc3c(F)cc(NC(=O)NC4CC4)c(OC)c3F)c2cc1C(N)=O` [III-40], for which the IC50 on EGFR is over 100 nM; in assay [1] (Homo sapiens) it was over 1000 nM; at FGFR2 it was over 100 nM; on FGFR4, over 100 nM; in [2] (Homo sapiens), over 10000 nM; in assay [3] (Homo sapiens), over 10000 nM. In addition, the IC50 in assay [4] (Homo sapiens) is over 10000 nM; at VEGFR-2 (KDR), over 10 nM; on C-MET it was over 100 nM; in assay [5] (Homo sapiens), over 5000 nM.
As to `COc1cc2nccc(Oc3c(F)cc(NC(=O)NC4CC4)c(Cl)c3OC)c2cc1C(N)=O` [III-41], the IC50 on EGFR is over 100 nM; in [1] (Homo sapiens), over 1000 nM; at FGFR2 it was over 100 nM; on FGFR4, over 100 nM; in [2] (Homo sapiens), over 10000 nM; in [3] (Homo sapiens) it was over 10000 nM. Also, the IC50 was over 10000 nM in assay [4] (Homo sapiens), over 10 nM on VEGFR-2 (KDR), over 100 nM on C-MET and over 5000 nM in [5] (Homo sapiens).
Consider `COc1cc2nccc(Oc3c(F)cc(NC(=O)NC4CC4)c(Cl)c3OC(C)C)c2cc1C(N)=O` [III-42], for which the IC50 was over 100 nM on EGFR; over 1000 nM in assay [1] (Homo sapiens); over 100 nM on FGFR2; over 100 nM at FGFR4; over 10000 nM in assay [2] (Homo sapiens); over 10000 nM in [3] (Homo sapiens). Also, the IC50 in [4] (Homo sapiens) is over 10000 nM; at VEGFR-2 (KDR), over 10 nM; on C-MET, over 100 nM; in [5] (Homo sapiens), over 5000 nM.
`[2H]C([2H])([2H])Oc1c(Cl)c(NC(=O)NC2CC2)cc(F)c1Oc1ccnc2cc(OC)c(C(N)=O)cc12` [III-43]: the IC50 on EGFR was over 100 nM; in assay [1] (Homo sapiens) it was over 1000 nM; on FGFR2 it was over 100 nM; on FGFR4, over 100 nM; in [2] (Homo sapiens) it was over 10000 nM; in [3] (Homo sapiens) it was over 10000 nM. Further, the IC50 in assay [4] (Homo sapiens) is over 10000 nM; on VEGFR-2 (KDR) it was over 10 nM; at C-MET, over 100 nM; in [5] (Homo sapiens), over 5000 nM.
Consider `COc1cc2nccc(Oc3c(F)cc(NC(=O)NC4CC4)c(Cl)c3OCC(F)F)c2cc1C(N)=O` [III-44], for which the IC50 on EGFR is over 100 nM; in assay [1] (Homo sapiens), over 1000 nM; at FGFR2, over 100 nM; at FGFR4, over 100 nM; in assay [2] (Homo sapiens), over 10000 nM; in assay [3] (Homo sapiens) it was over 10000 nM. The IC50 in assay [4] (Homo sapiens) was over 10000 nM; at VEGFR-2 (KDR), over 10 nM; on C-MET, over 100 nM; in [5] (Homo sapiens) it was over 5000 nM.
For the compound `COc1cc2nccc(Oc3c(F)cc(NC(=O)NC4CC4)c(Cl)c3OC3CC3)c2cc1C(N)=O` [III-45], the IC50 at EGFR is over 100 nM; in assay [1] (Homo sapiens), over 1000 nM; on FGFR2, over 100 nM; at FGFR4 it was over 100 nM; in [2] (Homo sapiens), over 10000 nM; in assay [3] (Homo sapiens), over 10000 nM. For the same compound, the IC50 is over 10000 nM in assay [4] (Homo sapiens), over 10 nM on VEGFR-2 (KDR), over 100 nM at C-MET and over 5000 nM in [5] (Homo sapiens).

(Values after patent publication US12071408B2, “Multi-targeted tyrosine kinase inhibitors effective in antitumor uses” (Shanghai AB PharmaTech Ltd., priority 2021, dated 2024).)
